# Data reported in US20250236607A1, “CYCLIN-DEPENDENT KINASE 9 (CDK9) DEGRADERS AND METHODS OF USING THEREOF” (OHIO STATE INNOVATION FOUNDATION, priority 2022, published 2025).
# Like-named read-outs stand apart in the source and are kept apart here.
# Tests used:
# Kinetic solubility assay = conditions: kinetic solubility, PBS pH 7.4
# CDK9 [1] = target: T1, CDK9 (Homo sapiens, UniProt P50750+Q96SW2); assay: CDK9 degradation, automated western blot, triazole-containing AT7519 degraders (MV411); type: cell-based
# T1 construct: endogenous in cells
# T1 sequence (P50750 whole entry): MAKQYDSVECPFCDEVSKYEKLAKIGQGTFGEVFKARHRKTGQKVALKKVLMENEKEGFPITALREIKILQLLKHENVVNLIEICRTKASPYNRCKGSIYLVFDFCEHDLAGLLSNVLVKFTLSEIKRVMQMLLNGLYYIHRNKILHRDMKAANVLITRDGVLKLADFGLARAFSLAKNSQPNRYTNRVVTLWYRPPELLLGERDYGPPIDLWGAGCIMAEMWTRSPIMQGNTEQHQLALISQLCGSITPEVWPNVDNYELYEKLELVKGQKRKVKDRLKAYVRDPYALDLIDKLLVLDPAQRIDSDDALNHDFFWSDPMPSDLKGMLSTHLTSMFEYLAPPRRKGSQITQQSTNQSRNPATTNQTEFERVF
# T1 sequence (O60563 whole entry partner): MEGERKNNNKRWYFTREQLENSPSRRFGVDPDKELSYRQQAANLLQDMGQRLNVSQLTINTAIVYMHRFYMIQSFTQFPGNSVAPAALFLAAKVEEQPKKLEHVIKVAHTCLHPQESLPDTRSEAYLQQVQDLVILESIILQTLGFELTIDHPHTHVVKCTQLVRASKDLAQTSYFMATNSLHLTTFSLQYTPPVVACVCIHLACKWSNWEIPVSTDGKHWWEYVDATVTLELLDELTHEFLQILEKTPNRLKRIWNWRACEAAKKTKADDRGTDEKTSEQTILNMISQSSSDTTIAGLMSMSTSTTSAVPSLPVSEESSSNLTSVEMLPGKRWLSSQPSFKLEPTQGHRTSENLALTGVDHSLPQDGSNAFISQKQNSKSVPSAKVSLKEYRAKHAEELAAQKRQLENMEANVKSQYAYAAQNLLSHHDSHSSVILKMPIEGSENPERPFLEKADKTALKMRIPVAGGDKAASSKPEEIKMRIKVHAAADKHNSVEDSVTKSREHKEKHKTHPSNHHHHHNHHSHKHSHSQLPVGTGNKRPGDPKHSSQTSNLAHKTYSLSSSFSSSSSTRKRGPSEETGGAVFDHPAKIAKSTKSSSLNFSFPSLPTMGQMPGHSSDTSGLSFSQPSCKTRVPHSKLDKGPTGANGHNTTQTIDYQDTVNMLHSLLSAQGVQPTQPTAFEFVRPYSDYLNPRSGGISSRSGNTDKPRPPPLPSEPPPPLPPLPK
# T1 sequence (Q96SW2 whole entry): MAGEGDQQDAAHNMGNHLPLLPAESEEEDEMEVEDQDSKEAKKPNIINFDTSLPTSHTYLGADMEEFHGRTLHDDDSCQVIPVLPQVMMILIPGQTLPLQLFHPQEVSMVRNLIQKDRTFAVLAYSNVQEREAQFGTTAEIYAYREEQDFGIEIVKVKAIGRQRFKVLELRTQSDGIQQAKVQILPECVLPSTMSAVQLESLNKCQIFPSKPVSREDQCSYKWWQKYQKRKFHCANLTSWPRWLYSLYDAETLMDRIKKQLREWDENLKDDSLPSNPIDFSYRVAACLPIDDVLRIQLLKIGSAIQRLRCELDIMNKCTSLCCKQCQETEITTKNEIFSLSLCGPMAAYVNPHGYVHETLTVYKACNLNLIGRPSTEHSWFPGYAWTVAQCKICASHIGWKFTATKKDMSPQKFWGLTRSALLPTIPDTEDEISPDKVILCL
# T1 sequence (Q16531 whole entry partner): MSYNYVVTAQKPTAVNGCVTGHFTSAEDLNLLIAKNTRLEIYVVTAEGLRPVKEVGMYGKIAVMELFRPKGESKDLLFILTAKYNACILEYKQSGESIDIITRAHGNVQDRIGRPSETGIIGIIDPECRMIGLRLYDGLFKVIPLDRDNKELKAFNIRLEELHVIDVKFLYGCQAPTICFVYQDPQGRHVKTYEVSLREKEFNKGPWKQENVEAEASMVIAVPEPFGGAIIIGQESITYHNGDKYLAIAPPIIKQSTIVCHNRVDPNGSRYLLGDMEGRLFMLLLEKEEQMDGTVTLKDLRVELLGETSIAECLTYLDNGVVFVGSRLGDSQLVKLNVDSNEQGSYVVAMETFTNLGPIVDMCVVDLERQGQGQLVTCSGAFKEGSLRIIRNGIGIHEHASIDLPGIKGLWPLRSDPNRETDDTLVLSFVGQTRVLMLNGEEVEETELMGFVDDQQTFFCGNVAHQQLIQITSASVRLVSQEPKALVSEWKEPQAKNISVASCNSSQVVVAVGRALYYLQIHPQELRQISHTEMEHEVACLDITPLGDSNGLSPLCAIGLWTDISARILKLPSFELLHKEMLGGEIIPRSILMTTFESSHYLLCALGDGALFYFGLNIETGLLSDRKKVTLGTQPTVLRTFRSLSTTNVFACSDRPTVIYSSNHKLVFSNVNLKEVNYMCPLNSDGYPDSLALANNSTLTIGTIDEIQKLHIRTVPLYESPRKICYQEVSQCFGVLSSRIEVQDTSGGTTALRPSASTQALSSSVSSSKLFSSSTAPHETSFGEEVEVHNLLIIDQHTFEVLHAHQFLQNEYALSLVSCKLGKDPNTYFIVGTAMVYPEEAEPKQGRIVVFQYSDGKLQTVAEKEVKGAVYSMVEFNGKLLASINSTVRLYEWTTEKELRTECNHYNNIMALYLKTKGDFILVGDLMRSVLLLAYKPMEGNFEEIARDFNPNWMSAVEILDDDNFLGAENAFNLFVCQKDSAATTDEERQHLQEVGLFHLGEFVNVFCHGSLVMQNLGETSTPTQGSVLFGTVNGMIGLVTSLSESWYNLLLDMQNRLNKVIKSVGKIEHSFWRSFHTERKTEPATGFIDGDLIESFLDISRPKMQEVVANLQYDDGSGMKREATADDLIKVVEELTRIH
# Protocol: The obtained compounds were tested in biological experiments to measure their potency in inhibiting the growth of AML cells and in their degradation of CDK9. These measurements are reported as half-maximum growth inhibitory and half-maximum degradation concentrations, IC50s and DC50s, respectively. Maximum percent degradation (Dmax) values were also obtained during the CDK9 degradation assessments. The common MTS assay was used to acquire the IC50 values, while the DC50 values were obtained using an automated western blot experiment. These values are presented in Table 2, along with pIC50 (log(nM IC50)) to more accurately reflect the differences/lack thereof in in vitro cytotoxicity. The notation “N:N*” represents the number of linker atoms on each side of the rigid triazole ring for a given degrader. Predicted log D values, calculated using the ChemAxon […], are also provided for each degrader. To characterize the physicochemical properties of the new degrader series, two additional assays were performed: a kinetic aqueous solubility assay and the chromatographic log D experiment described earlier. Aqueous solubility is shown in μM while experimentally determined log D is shown as log k′80. Details regarding the execution of each experiment are provided below.
# MV411 cells [2] = assay: MTS cytotoxicity assay against MV411 cells; type: cell-based; conditions: Homo sapiens, MV4-11
# MV411 cells [3] = assay: Cellular potency in human serum versus fetal bovine serum, MV411; type: cell-based
# Description: FIGS. 3A-3C. In vitro cellular potency (against MV411 cells) in human serum (HS) versus fetal bovine serum (FBS) for compounds 4.7b (FIG. 3A) 4.9c (FIG. 3B), and 4,8a (FIG. 3C).
# This contrasts with 4.8a, which loses its potency by almost 20-fold in human serum (FIG. 3C).
# CDK9 [4] = assay: In vivo CDK9 degradation in mice; conditions: preliminary study, AML-xenografted mice
# Protocol: Both degraders were able to degrade CDK9 at low nanomolar concentrations. […] Moreover, dissolution of the test compounds in the 10 mM phosphate buffered saline (PBS) media was very difficult. Solvents, such as dimethylsulfoxide (DMSO), polyethylene glycol and Tween 80©, had to be added in generous quantities to the PBS vehicle to facilitate solubility of the test compounds and allow for the preliminary in vivo assessment that led to the conclusion of inactivity in mice. Significant toxicity, in the form of death and inflammation at the injection site, was also observed due to the inclusion of these additives in the PBS vehicle.
# [5] = Chromatographic log D determination (log k′80); type: physicochemical; conditions: chromatographic log D, PLRP-S column, pH 7.72
# Summary of the method: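 Samples were diluted from DMSO stock to 122 μM in acetonitrile and run on a PLRP-S column in 20:80 aqueous ammonium acetate/acetonitrile, pH 7.72, at 1 mL/min with UV detection at 337 nm. log k′80 used a fixed 0.3 min dead time derived from a five-compound standard set. Runs were done in triplicate.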
smiles,measurement,setting,value
"O=C1CCC(N2C(=O)c3cccc(OCCCn4cc(CCCCN5CCC(NC(=O)c6n[nH]cc6NC(=O)c6c(Cl)cccc6Cl)CC5)nn4)c3C2=O)C(=O)N1 (stereo not drawn) [Compound 4.7b, 4-(2,6-dichlorobenzamido)-N-(1-(4-(1-(3-((2-(2,6-dioxopiperidin-3-yl)-1,3-dioxoisoindolin-4-yl)oxy)propyl)-1H-1,2,3-triazol-4-yl)butyl)piperidin-4-yl)-1H-pyrazole-3-carboxamide]",Solubility,Kinetic solubility assay,40.9 µM
same,solubility at 1.5 h,"Kinetic solubility assay; phosphate buffered saline, pH 7.4, aqueous buffer, kinetic from dmso stock, Solubility (μM)",40 µM
same,DC50,"CDK9 [1]; CDK9 degradation, MV411 cells",69.2 nM
same,Dmax,"CDK9 [1]; MV4-11, maximum percent CDK9 degradation",79.1%
same,IC50,"MV411 cells [2]; defined as log(nM IC50), MV411, read-out: pIC50 (converted)",200 nM
same,IC50,"MV411 cells [2]; growth inhibition, MV411 cells, MTS, read-out: IC50",190 nM
same,improvement in cytotoxicity in human serum versus FBS,MV411 cells [3],~3 fold
same,in vivo CDK9 degradation,CDK9 [4],not observed
same,logk′80,[5],0.084
